# Source: ChEMBL document CHEMBL1909597, “Biological evaluation of glycosyl-isoindigo derivatives against the pathogenic agents of tropical diseases (malaria, Chagas disease, leishmaniasis and human African trypanosomiasis)” (Bioorg Med Chem Lett, 2011)
# Columns and labels:
# [1] = tested on: Trypanosoma cruzi; assay: Antiparasitic activity against trypomastigotes of Trypanosoma cruzi Tulahuen C2C4 expressing LacZ gene infected in rat L6 cells after 96 hrs; assay type: functional, organism-based; conditions: Tulahuen C2C4, L6, 96 h
# [2] = tested on: Plasmodium falciparum; assay: Antiparasitic activity against Plasmodium falciparum K1 […] assessed as inhibition of parasite growth preincubated for 48 hrs before [3H]hypoxanthine addition measured after 24 hrs by [3H]hypoxanthine incorporation assay; assay type: functional, organism-based
# [3] = tested on: Leishmania donovani; assay: Antiparasitic activity against amastigotes of Leishmania donovani MHOM/ET/67/L82 […] after 72 hrs by Alamar blue assay; assay type: functional, organism-based; conditions: MHOM/ET/67/L82, 72 h
# [4] = tested on: L6; assay: Cytotoxicity against rat L6 cells after 72 hrs by Alamar blue assay; assay type: cell-based; conditions: L6, 72 h
# [5] = tested on: Trypanosoma brucei rhodesiense; assay: Antiparasitic activity against bloodstream form of Trypanosoma brucei rhodesiense STIB 900 […] after 72 hrs by Alamar blue assay; assay type: functional, organism-based; conditions: STIB 900, 72 h
# [6] = Selectivity index, ratio of IC50 for rat L6 cells to IC50 for bloodstream form of Trypanosoma brucei rhodesiense STIB 900; assay type: toxicity, cell-based; conditions: read-out: Ratio IC50
# [7] = Selectivity index, ratio of IC50 for rat L6 cells to IC50 for Plasmodium falciparum K1; assay type: toxicity, cell-based; conditions: read-out: Ratio IC50
# [8] = Selectivity index, ratio of IC50 for rat L6 cells to IC50 for Leishmania donovani MHOM/ET/67/L82 amastigotes; assay type: toxicity, cell-based; conditions: read-out: Ratio IC50
# [9] = Selectivity index, ratio of IC50 for rat L6 cells to IC50 for Trypanosoma cruzi Tulahuen C2C4 trypomastigotes; assay type: toxicity, cell-based; conditions: read-out: Ratio IC50
IC50 [1] [µM],IC50 [5] [µM],Compound,IC50 [2] [µM],IC50 [3] [µM],IC50 [4] [µM],selectivity ratio [6],selectivity ratio [7],selectivity ratio [8],selectivity ratio [9]
11.2,1.24,CC(=O)OC[C@H]1O[C@@H](N2C(=O)/C(=C3/C(=O)Nc4ccccc43)c3ccccc32)[C@H](OC(C)=O)[C@@H](OC(C)=O)[C@@H]1OC(C)=O,> 8,1.93,4.53,,,,
> 120,0.51,CCCC(=O)c1ccc2c(c1)/C(=C1\C(=O)N([C@@H]3O[C@H](COC(C)=O)[C@@H](OC(C)=O)[C@H](OC(C)=O)[C@H]3OC(C)=O)c3ccc(Br)cc31)C(=O)N2,2.48,3.6,99,194,39.9,27.5,
19.3,0.88,CC(=O)OC[C@H]1O[C@@H](N2C(=O)/C(=C3/C(=O)Nc4ncccc43)c3cc(Br)ccc32)[C@H](OC(C)=O)[C@@H](OC(C)=O)[C@@H]1OC(C)=O,> 7,0.84,10,,,,
> 130,0.6,CC(=O)OC[C@H]1O[C@@H](N2C(=O)/C(=C3/C(=O)Nc4ccc(OC(F)(F)F)cc43)c3ccccc32)[C@H](OC(C)=O)[C@@H](OC(C)=O)[C@@H]1OC(C)=O,> 7,11.1,124,206,,,

# The remaining lines, values behind:
Compound,IC50 [1] [µM],IC50 [5] [µM],IC50 [2] [µM],IC50 [3] [µM],IC50 [4] [µM],selectivity ratio [6],selectivity ratio [7],selectivity ratio [8],selectivity ratio [9]
O=C(Cn1ccnc1[N+](=O)[O-])NCc1ccccc1 [BENZNIDAZOLE],2.55,,,,,,,,> 135
CCN(CC)CCCC(C)Nc1ccnc2cc(Cl)ccc12 (stereo unspecified) [CHLOROQUINE],,,,,,,327,,
Nc1nc(N)nc(Nc2ccc([As]3SCC(CO)S3)cc2)n1 (stereo unspecified) [MELARSOPROL],,0.013,,,,193,,,
CCCCCCCCCCCCCCCCOP(=O)([O-])OCC[N+](C)(C)C [MILTEFOSINE],,,,0.37,,,,265,
